Legend:
[1] = system: PC-3 cells (androgen-independent prostatic cancer); assay: MTT cell proliferation assay, PC-3 cells; type: cell-based; conditions: 72 h
[2] = system: MCF-7 cells; assay: Immunocytochemistry assay, Ki67 staining; type: cell-based; conditions: 48 h
Protocol: MCF-7 cells were trypsinized and counted by the trypan-blue exclusion assay, and then cells were seeded with an initial density of 3 × 10^4 cells/mL in 24-well culture plates (Nunc, Apogent, Denmark) containing circular coverslips of 10 mm diameter. Following seeding (48 h), cells were treated with 1 and 10 µM concentrations of 5-FU, as positive controls, and steroid 19 for 48 h. Untreated cells were used as a negative control. After this period, photograph shots were acquired at an optical microscope coupled with a digital camera (Supplementary Material, S2). Subsequently, the medium was removed, and cells were fixed with 10% formalin (15 min, room temperature). After fixation, cells were washed three times with PBS, permeabilized, and blocked for non-specific binding sites for 1 h with 0.5% Triton X-100 and 6% BSA at room temperature. Cells were incubated at 4 °C with 30 μL/coverslip of primary antibody, rabbit polyclonal anti-Ki67 (1:50, Abcam Plc.), prepared in 0.3% BSA and 0.1% Triton X-100, overnight. Then, cells were washed three times with PBS and incubated for 1 h, at room temperature, with 30 μL/coverslip of a solution containing the secondary antibody, Alexa Fluor 488 donkey anti-rabbit (1:200, Life Technologies), and the nuclear marker Hoechst-33342 (1:500, Life Technologies) prepared in PBS. Lastly, the coverslips were washed three times with PBS, mounted on a drop of the fluoroshield mounting medium (Abcam, Plc.) on a microscope slide, and left to dry for 24 h. Photomicrographs were taken using an Axio Imager A1 microscope (Carl Zeiss, Göttingen, Germany) with the 40 × objective.

IC50 ([1]; MTT, tumoral cells, read-out: Estimated IC50, PC-3): 19 µM
Substance: (E)-16-(2,3-Dichlorobenzylidene)-3-hydroxy-5α ,6α -epoxy-10,13-dimethyl-1,3,4,7,8,9,10,11,12,13,15,16-dodecahydro-2H-cyclopenta[α ]phenanthren-17(14H)-one [Compound 19]
decrease on cell proliferation relative to the control ([1]; PC-3, 50 µM): higher than 75%
Ki67-positive cells relative to control ([2]; MCF-7, 1 µM): none of the compounds significantly affected
Ki67-positive cells relative to control ([2]; MCF-7, 10 µM): statistically significant decrease

From paper PMC10045663, “Synthesis, In Vitro Biological Evaluation of Antiproliferative and Neuroprotective Effects and In Silico Studies of Novel 16E-Arylidene-5α,6α-epoxyepiandrosterone Derivatives” (Biomedicines, 2023)
